Data taken from patent US12215101B2, “Pro drugs of PDE10 compounds” (Merck Sharp & Dohme LLC, priority 2021, dated 2025).
Values after ≈ are worked out from the molar mass of the structure shown.

Assays:
[1] = Plasma stability in frozen monkey plasma; format: in vitro ADME; details: 37° C., 10% CO2, read-out: T1/2 Monkey Plasma (converted)
Method: (§1) Plasma stability of the compounds 1-19 (1 μM) was evaluated in frozen monkey and human plasma at 37° C. in a 10% CO2 environment. The stability of the analyte was assessed by determining the percentage of drug loss over the course of 0, 0.25, 0.5, 1, and 3 hr. In addition, the appearance of Compound A was determined for the same time course. Percent of drug loss as based on ratio with internal standard. Analyte concentrations were measured by LC/MS/MS. Linear regression was performed with log transformed percent of average TO values and linear time values. The elimination rate constant (ke) was calculated from the slope of this regression line and the half-life (T1/2) calculated based on the elimination rate constant.

[2] = Plasma stability in frozen human plasma; format: in vitro ADME; details: 37° C., 10% CO2, read-out: T1/2 Human Plasma (converted)
Method: as §1

[3] = Aqueous solubility (slurry in pH 7 buffer, UPLC); format: physicochemical; details: pH 7.0 phosphate buffer, amorphous material; for solubility: aqueous buffer, thermodynamic from solid, read-out: Aqu. Solubility
Method: Aqueous solubility of the compounds was measured by suspending, sonicating (30 minutes), and slurrying (2 hours, 1000 rpm) excess solid (typically 5-10 mg) in phosphate buffered saline at pH 7, or equivalent pH 7 buffer. The suspension was then sonicated again for 30 minutes and stirred again at 1000 rpm for at least 6-24 hours. Approximately 400 μL of sample was removed and placed into spin filters. Each sample was spun at 14K rpm for 10 minutes using a 0.45 μm PVDF spin filter. A portion of the filtrate was removed and diluted with 1:1 ACN:H2O. The resultant samples were analyzed using UPLC analysis. Retains of the solids were checked by XRPD to determine if the material was crystalline or amorphous. Solubility of Compound A was measured at 140 μg/mL at pH 7.4 in PBS buffer solution.

half-life at 1 μM [1] [min]	half-life at 1 μM [2] [min]	solubility [3] [µg/mL]	Aqu. Solubility [3]	SMILES
6.6	3.6	2.3 (≈ 4.27 µM)		Cc1ccc([C@H]2C[C@@H]2COc2cc(N(Cc3nnc(C)s3)C(=O)OCc3oc(=O)oc3C)nc(C)n2)nc1 [Compound 1, (5-Methyl-2-oxo-1,3-dioxol-4-yl)methyl ((5-methyl-1,3,4-thiadiazol-2-yl)methyl)(2-methyl-6-(((1S,2S)-2-(5-methylpyridin-2-yl)cyclopropyl)methoxy)pyrimidin-4-yl)carbamate]
4.8	17.4		BLQ	Cc1ccc([C@H]2C[C@@H]2COc2cc(N(Cc3nnc(C)s3)Sc3ccccc3)nc(C)n2)nc1 [Compound 2, N-((5-Methyl-1,3,4-thiadiazol-2-yl)methyl)-N-(2-methyl-6-(((1S,2S)-2-(5-methylpyridin-2-yl)cyclopropyl)methoxy)pyrimidin-4-yl)-S-phenylthiohydroxylamine]
69	182	19 (≈ 39 µM)		Cc1ccc([C@H]2C[C@@H]2COc2cc(N(Cc3nnc(C)s3)C(=O)c3ccccc3)nc(C)n2)nc1 [Compound 3, N-((5-Methyl-1,3,4-thiadiazol-2-yl)methyl)-N-(2-methyl-6-(((1S,2S)-2-(5-methylpyridin-2-yl)cyclopropyl)methoxy)pyrimidin-4-yl)benzamide]
104	412	0.008 (≈ 0.0161 µM)		CCCCCOC(=O)N(Cc1nnc(C)s1)c1cc(OC[C@H]2C[C@@H]2c2ccc(C)cn2)nc(C)n1 [Compound 4, Pentyl ((5-methyl-1,3,4-thiadiazol-2-yl)methyl)(2-methyl-6-(((1S,2S)-2-(5-methylpyridin-2-yl)cyclopropyl)methoxy)pyrimidin-4-yl)carbamate]
78.6	104	0.02 (≈ 0.0357 µM)		Cc1ccc([C@H]2C[C@@H]2COc2cc(N(Cc3nnc(C)s3)C(=O)OCOC(=O)c3ccccc3)nc(C)n2)nc1 [Compound 5, ((((5-Methyl-1,3,4-thiadiazol-2-yl)methyl)(2-methyl-6-(((1S,2S)-2-(5-methylpyridin-2-yl)cyclopropyl)methoxy)pyrimidin-4-yl)carbamoyl)oxy)methyl benzoate]
14.4	21	0.02 (≈ 0.0361 µM)		CCCCCC(=O)OCOC(=O)N(Cc1nnc(C)s1)c1cc(OC[C@H]2C[C@@H]2c2ccc(C)cn2)nc(C)n1 [Compound 6, ({(2-Methyl-6-{[(1S,2S)-2-(5-methylpyridin-2-yl)cyclopropyl]methoxylpyrimidin-4-yl)[(5-methyl-1,3,4-thiadiazol-2-yl)methyl]carbamoyl}oxy)methyl hexanoate]
5.4	4.8	15 (≈ 29.3 µM)		CCC(=O)OCOC(=O)N(Cc1nnc(C)s1)c1cc(OC[C@H]2C[C@@H]2c2ccc(C)cn2)nc(C)n1 [Compound 7, ({(2-Methvl-6-{[(1S,2S)-2-(5-methylpyridin-2-yl)cyclopropyl]methoxy}pyrimidin-4-yl)[(5-methyl-1,3,4-thiadiazol-2-yl)methyl|carbamoyl}oxy)methyl propanoate]
9.6	11.4	0.139 (≈ 0.247 µM)		Cc1ccc([C@H]2C[C@@H]2COc2cc(N(Cc3nnc(C)s3)C(=O)OCOC(=O)c3ccncc3)nc(C)n2)nc1 [Compound 8, ({(2-Methyl-6-{[(1S,2S)-2-(5-methylpyridin-2-yl)cyclopropyl]methoxy}pyrimidin-4-yl)[(5-methyl-1,3,4-thiadiazol-2-yl)methyl]carbamoyl}oxy)methyl pyridine-4-carboxylate]
6	7.2	0.058 (≈ 0.103 µM)		Cc1ccc([C@H]2C[C@@H]2COc2cc(N(Cc3nnc(C)s3)C(=O)OCOC(=O)c3ccccn3)nc(C)n2)nc1 [Compound 9, ({(2-Methyl-6-{[(1S,2S)-2-(5-methylpyridin-2-yl)cyclopropyl]methoxy}pyrimidin-4-yl)[(5-methyl-1,3.4-thiadiazol-2-yl)methyl]carbamoyl}oxy)methyl pyridine-2-carboxylate]
30.6	55.8	0.05 (≈ 0.089 µM)		Cc1ccc([C@H]2C[C@@H]2COc2cc(N(Cc3nnc(C)s3)C(=O)OCOC(=O)c3cccnc3)nc(C)n2)nc1 [Compound 10, ({(2-Methyl-6-{[(1S,2S)-2-(5-methylpyridin-2-ylcyclopropyl]methoxy}pyrimidin-4-yl)|(5-methyl-1,3,4-thiadiadol-2-yl)methyl]carbamoyl}oxy)methyl pyridine-3-carboxylate]
43.2	64.8	0.07 (≈ 0.121 µM)		Cc1ccc([C@H]2C[C@@H]2COc2cc(N(Cc3nnc(C)s3)C(=O)OCOC(=O)c3ccc(F)cc3)nc(C)n2)nc1 [Compound 11, ({(2-Methyl-6-{[(1S,2S)-2-(5-methylpyridin-2-yl)cyclopropyl]methoxy}pyrimidin-4-yl)[(5-methyl-1,3,4-thiadiazol-2-yl)methyl]carbamoyl}oxy)methyl 4-fluorobenzoate]
16.8	27	0.08 (≈ 0.138 µM)		Cc1ccc([C@H]2C[C@@H]2COc2cc(N(Cc3nnc(C)s3)C(=O)OCOC(=O)c3ccccc3F)nc(C)n2)nc1 [Compound 13, ({(2-Methyl-6-{[(1S,2S)-2-(5-methylpyridin-2-yl)cyclopropyl]methoxy}pyrimidin-4-yl)[(5-methyl-1,3,4-thiadiazol-2-yl)methyl]carbamoyl}oxy)methyl 2-fluorobenzoate]
54	126	0.02 (≈ 0.0339 µM)		COc1ccccc1C(=O)OCOC(=O)N(Cc1nnc(C)s1)c1cc(OC[C@H]2C[C@@H]2c2ccc(C)cn2)nc(C)n1 [Compound 14, ({(2-Methyl-6-{[(1S,2S)-2-(5-methylpyridin-2-yl)cyclopropyl]methoxy}pyrimidin-4-yl)[(5-methyl-1,3,4-thiadiazol-2-yl)methyl]carbamoyl}oxy)methyl 2-methoxybenzoate]
67.2	198	0.12 (≈ 0.203 µM)		COc1cccc(C(=O)OCOC(=O)N(Cc2nnc(C)s2)c2cc(OC[C@H]3C[C@@H]3c3ccc(C)cn3)nc(C)n2)c1 [Compound 15, ({(2-Methyl-6-{[(1S,2S)-2-(5-methylpyridin-2-yl)cyclopropyl]methoxy}pyrimidin-4-yl)[(5-methyl-1,3,4-thiadiazol-2-yl)methyl]carbamoyl}oxy)methyl 3-methoxybenzoate]
100	227	0.16 (≈ 0.271 µM)		COc1ccc(C(=O)OCOC(=O)N(Cc2nnc(C)s2)c2cc(OC[C@H]3C[C@@H]3c3ccc(C)cn3)nc(C)n2)cc1 [Compound 16, ({(2-Methyl-6-{[(1S,2S)-2-(5-methylpyridin-2-yl)cyclopropyl]methoxy}pyrimidin-4-yl)[(5-methyl-1,3,4-thiadiazol-2-yl)methyl]carbamoyl}oxy)methyl 4-methoxybenzoate]
7.2	7.8	0.16 (≈ 0.304 µM)		Cc1ccc([C@H]2C[C@@H]2COc2cc(N(Cc3nnc(C)s3)C(=O)OCOC(=O)C(C)C)nc(C)n2)nc1 [Compound 17]
16.8	21	0.07 (≈ 0.124 µM)		Cc1ccc([C@H]2C[C@@H]2COc2cc(N(Cc3nnc(C)s3)C(=O)OCOC(=O)C3CCCCC3)nc(C)n2)nc1 [Compound 18, ({(2-Methyl-6-{[(1S,2S)-2-(5-methylpyridin-2-yl)cyclopropyl]methoxy}pyrimidin-4-yl)[(5-methyl-1,3,4-thiadiazol-2-yl)methyl]carbamoyl}oxy)methyl cyclohexanecarboxylate]
35.4	148	0.03 (≈ 0.0541 µM)		CCC(CC)C(=O)OCOC(=O)N(Cc1nnc(C)s1)c1cc(OC[C@H]2C[C@@H]2c2ccc(C)cn2)nc(C)n1 [Compound 19, ({(2-Methyl-6-{[(1S,2S)-2-(5-methylpyridin-2-yl)cyclopropyl]methoxy}pyrimidin-4-yl)[(5-methyl-1,3,4-thiadiazol-2-yl)methyl]carbamoyl}oxy)methyl 2-ethylbutanoate]
